Experimental data reported in patent US20250332116A1, “CARBON-BASED ANTI VIRAL NANOPARTICLES” (PORTO CONTE RICERCHE SOCIETA A RESP[…], priority 2021, published 2025).
Values after ≈ are worked out from the molar mass of the structure shown.

What was measured:
[1] = system: SARS-CoV-2; assay: Antiviral activity assay (SARS-CoV-2 nucleoprotein ELISA, CPE observation) in Vero E6 cells; type: cell-based; details: Severe acute respiratory syndrome coronavirus 2, Vero C1008
[2] = MTS cytotoxicity assay; details: African green monkey (Cercopithecus aethiops), Vero E6 cells

## CCC(CC)COC(=O)[C@H](C)N[P@](=O)(OC[C@H]1O[C@@](C#N)(c2ccc3c(N)ncnn23)[C@H](O)[C@@H]1O)Oc1ccccc1 [Remdesivir]
[1]; 0.05 μg mL^−1, m.o.i. 0.01, 72 hours, ELISA, untreated infected control =100%, read-out: Antiviral activity (% viral NC protein, compared to untreated control)
  activity at 0.05 µg/mL: 107 ± 23%
[1]; 0.24 μg mL^−1, m.o.i. 0.01, 72 hours, ELISA, untreated infected control =100%, read-out: Antiviral activity (% viral NC protein, compared to untreated control)
  activity at 0.24 µg/mL: 96 ± 10%
[1]; 1.2 μg mL^−1, m.o.i. 0.01, 72 hours, ELISA, untreated infected control =100%, read-out: Antiviral activity (% viral NC protein, compared to untreated control)
  activity at 1.2 µg/mL: 73 ± 9%
[1]; 6 μg mL^−1, m.o.i. 0.01, 72 hours, ELISA, untreated infected control =100%, read-out: Antiviral activity (% viral NC protein, compared to untreated control)
  activity at 6 µg/mL: 14 ± 7%
[1]; Vero E6, m.o.i. 0.01, 72 hours, nucleoprotein ELISA, read-out: 50% inhibitory concentration (IC50), SARS-CoV-2 viral replication
  IC50: 1.9 µg/mL (≈ 3.15 µM)
[2]
  CC50 at 72 h: > 120 µg/mL
  viability at 72 h, 2.4 μg mL^−1: 94.1 ± 1%
  viability at 72 h, 12 μg mL^−1: 98.9 ± 6.7%
  viability at 72 h, 60 μg mL^−1: 82.1 ± 2.2%
